Measurements taken from US7030132B2, “Method of improving bioavailability of orally administered drugs, a method of screening for enhancers of such bioavailability and novel pharmaceutical compositions for oral delivery of drugs” (Cancer Research Ventures Limited, priority 1999, dated 2006).
Like-named read-outs stand apart in the source and are kept apart here.

Experiments:
[1] = tested on: IGROV1 parental cells; test: Cytotoxicity, sulphorhodamine (SRB) assay, IGROV1 parental cells; assay type: cell-based, human; details: for IC50: IGROV1 parental cells; for ratio −/+ GF120918 (IGROV1): IC50 without / with 2 μM GF120918, IGROV1
Procedure: (§1) Cytotoxicity was Determined Using the Sulphorhodamine (SRB) Assay. Cells were plated in 96-wells plates, 1500 cells/well. Cells were cultured for 48 h at 37° C. and 5% CO2 in the absence of drugs. Then, in a serial dilution from approximately 1 μM to approximately 0.05 nM drugs were added, and cells were cultured for another 5 days at 37° C. and 5% CO2 Next cells are fixated in the plate, washed, and coloured with SRB. After 20 min unbound SRB is washed away using 0.1 M acetic acid. SRB that is bound to the cells is dissolved in 10 mM Tris-HCl buffer. Using a 96-well plate reader the absorbance at 540 nm is measured. For each drug the IC50 value was determined. Results are the mean of at least 3 experiments.

[2] = tested on: T8 resistant cells; test: Cytotoxicity, sulphorhodamine (SRB) assay, T8 resistant (BCRP overexpressing) cells; assay type: cell-based, human; details: for IC50: T8 resistant cells; for ratio −/+ GF120918 (T8): IC50 without / with 2 μM GF120918, T8
Procedure: as §1

[3] = Effect of GF120918 on oral bioavailability of topotecan in mdr1a/1b (-/-) mice; assay type: in vivo; details: topotecan 1 mg/kg oral, GF120918 50 mg/kg oral 15 min prior, plasma
Source text: The tests with mice assessed the bioavailability of the drug in mdr1a/1b double knock out mice in the presence and the absence of a BCRP inhibitor. The bioavailability tests can also be carried out with either MRP and/or P-gp knock out mice thus enabling assessment of whether any effect found due to the presence of the bioinhibitor is due solely to BCRP, not due to P-gp and/or MRP. Thus it can be determined whether the particular drug transported is transported using one or more transport systems. The drug to be transported can be provided with a detectable marker to assess where it is located and to be able to quantitate it. Some drugs can be detected and quantitated in plasma without use of a detectable marker. The methodology employed is analogous to that disclosed in the Lancet article discussed above and is also described in Br. J. Cancer 1997, 76: 1181–1183. The methodology is thus considered to be incorporated by reference and is considered enabled to a person skilled in the art. […]
GF120918 was suspended in a hydroxypropylmethylcellulose (10 g/l): Tween 80 (2% v/v): H2O (0.5:1:98.5 v/v/v) formulation for oral administration, at 5 mg.ml^−1. […] Topotecan levels in plasma were determined by HPLC analysis as described by Rosing et al., 1995, J. Chromatography, 668: 107–115, and are depicted in FIG. 1.

[4] = Clinical trial: oral topotecan with or without GF120918, plasma levels; assay type: in vivo; details: three patients, topotecan 1.0 mg/m2 oral, with or without oral GF120918 (1000 mg)
Procedure: In this example the first results of a clinical trial are shown. Three patients received topotecan orally at a dosis of 1.0 mg.m^−2. Topotecan was administered with or without GF120918 (1000 mg). For illustrative purposes, the plasma concentration vs. time is shown for one patient in FIG. 2. In FIG. 3 the average including the standard deviation is shown for all three patients.

[5] = Homo sapiens, IGROV-1, 120 h, without GF120918, 5 days drug exposure, read-out: IGROV1 IC50
[6] = + 2 μM GF120918, read-out: IGROV1 + GF120918 IC50
[7] = Homo sapiens, without GF120918, read-out: T8 IC50
[8] = + 2 μM GF120918, read-out: T8 + GF120918 IC50
[9] = without GF120918, 5 days drug exposure, read-out: IGROV1 IC50
[10] = without GF120918, read-out: T8 IC50

For `CC[C@@]1(O)C(=O)OCc2c1cc1n(c2=O)Cc2c-1nc1ccccc1c2CC[Si](C)(C)C` [BNP1350], the IC50 [1, 5] was 0.44 nM, the “ratio −/+ GF120918 (IGROV1)” value [1] was 0.53 and the IC50 [1, 6] was 0.84 nM. The “Rf (resistance factor) T8 + GF120918” value ([2]; + 2 μM GF120918) was 4.1, the IC50 [2, 7] was 4.94 nM and the “ratio −/+ GF120918 (T8)” value [2] was 1.4. For the same compound, the IC50 [2, 8] was 3.45 nM and the “Rf (resistance factor, IC50 T8 / IC50 IGROV1)” value ([2]; without GF120918) was 11.

For `CCc1c2c(nc3ccc(OC(=O)N4CCC(N5CCCCC5)CC4)cc13)-c1cc3c(c(=O)n1C2)COC(=O)[C@]3(O)CC` [CPT11, irinotecan], the IC50 [1, 5] was 544 nM, the “ratio −/+ GF120918 (IGROV1)” value [1] was 0.84 and the IC50 [1, 6] was 651 nM. The “Rf (resistance factor) T8 + GF120918” value ([2]; + 2 μM GF120918) was 4.7, the IC50 [2, 7] was 34000 nM and the “ratio −/+ GF120918 (T8)” value [2] was 11.2. The IC50 [2, 8] was 3040 nM and the “Rf (resistance factor, IC50 T8 / IC50 IGROV1)” value ([2]; without GF120918) was 62.

With `CC[C@@]1(O)C(=O)OCc2c1cc1n(c2=O)Cc2c-1nc1cc(F)c(C)c3c1c2C(N)CC3.CS(=O)(=O)O` (stereo partly shown) [DX8951f] the “ratio −/+ GF120918 (IGROV1)” value [1] was 0.60, the IC50 [1, 6] was 0.17 nM and the IC50 [1, 9] was 0.1 nM. The “Rf (resistance factor) T8 + GF120918” value ([2]; + 2 μM GF120918) was 2.3, the “ratio −/+ GF120918 (T8)” value [2] was 7.4 and the IC50 [2, 8] was 0.39 nM. For the same compound, the IC50 [2, 10] was 2.88 nM and the “Rf (resistance factor, IC50 T8 / IC50 IGROV1)” value ([2]; without GF120918) was 29.

With `COc1cc2c(cc1OC)CN(CCc1ccc(NC(=O)c3cccc4c(=O)c5cccc(OC)c5[nH]c34)cc1)CC2` [GF120918] the “effect of GF120918 on the sensitivity of the parental cell line IGROV1” value ([1]; 2 μM GF120918, topoisomerase I drugs) was “no or very little effect” and the “reversal of resistance of T8 for topoisomerase I drugs” value ([2]; addition of 2 μM GF120918) was “for the greater part reversed”.

In the case of `CC[C@@]1(O)C(=O)OCc2c1cc1n(c2=O)Cc2c-1nc1cc3c(cc1c2CN1CCN(C)CC1)OCCO3` [GG211], the “ratio −/+ GF120918 (IGROV1)” value [1] is reported as 0.74, the IC50 [1, 6] is reported as 0.87 nM and the IC50 [1, 9] is reported as 0.64 nM. For the same compound, the “Rf (resistance factor) T8 + GF120918” value ([2]; + 2 μM GF120918) was 5.3, the “ratio −/+ GF120918 (T8)” value [2] was 4.9 and the IC50 [2, 8] was 4.57 nM. The IC50 [2, 10] was 22.4 nM and the “Rf (resistance factor, IC50 T8 / IC50 IGROV1)” value ([2]; without GF120918) was 35.

With `CCc1c2c(nc3ccc(O)cc13)-c1cc3c(c(=O)n1C2)COC(=O)[C@]3(O)CC` [SN-38] the “ratio −/+ GF120918 (IGROV1)” value [1] was 1.66, the IC50 [1, 6] was 1.1 nM and the IC50 [1, 9] was 1.82 nM. The “Rf (resistance factor) T8 + GF120918” value ([2]; + 2 μM GF120918) was 6.0, the “ratio −/+ GF120918 (T8)” value [2] was 64.1 and the IC50 [2, 8] was 6.54 nM. For the same compound, the IC50 [2, 10] was 419 nM and the “Rf (resistance factor, IC50 T8 / IC50 IGROV1)” value ([2]; without GF120918) was 231.

In the case of `CC[C@@]1(O)C(=O)OCc2c1cc1n(c2=O)Cc2cc3c(CN(C)C)c(O)ccc3nc2-1` [topotecan], the “increase in the area under the curve (AUC) of oral topotecan” value [3] is reported as “approximately 6 fold”, the IC50 [1, 5] is reported as 8.93 nM and the “ratio −/+ GF120918 (IGROV1)” value [1] is reported as 0.97. For the same compound, the IC50 [1, 6] was 9.23 nM, the “systemic exposure (AUC) to oral topotecan” value [4] was “increased systemic exposure” and the “Rf (resistance factor) T8 + GF120918” value ([2]; + 2 μM GF120918) was 4.3. The IC50 [2, 7] was 979 nM, the “ratio −/+ GF120918 (T8)” value [2] was 24.4 and the IC50 [2, 8] was 40.2 nM. The “Rf (resistance factor, IC50 T8 / IC50 IGROV1)” value ([2]; without GF120918) was 110.
